Experimental data taken from article PMC9045296, “Development of Antifungal Peptides against Cryptococcus neoformans; Leveraging Knowledge about the cdc50Δ Mutant Susceptibility for Lead Compound Development” (Microbiology Spectrum, 2022).
Converted amounts (≈) assume the structure as drawn. Like-named read-outs stand apart in the source and are kept apart here. Residues, ends and D or L forms follow the SMILES beside them. *: point of attachment. Myristoyl = CCCCCCCCCCCCCC(=O)*

What was measured:
cdc50Δ mutant strain [1] = assay type: cell-based, Cryptococcus neoformans; settings: Table S1, drug alone
Description: (§1) Our assays followed standard CLSI protocol for broth microdilution assays using yeasts ([32]). Microbes were passaged in YPD media at 37°C with mixing for 2 days before harvesting with an inoculation loop to prepare monocultures on Sabouraud Dextrose Agar (SDA) plates. Monocultures on SDA plates were incubated for 2 days at 37°C before harvesting cells for microdilution assays. RPMI media (100 μL) was charged to each of the 96 wells in a 96-well plate, with an additional 100 μL in the first column. Peptide-DMSO solution (4 μL) at 12.8 mg/mL was charged to each of the wells in the first column. The 100 μL was serially diluted by a factor of 2 from the first column to the 11th column. Microbe inoculant was then prepared. An inoculation loop was used to transfer 1–3 colonies of cells to 1 mL phosphate buffer solution (PBS). The PBS and microbe solution was made uniform by vortex mixing. Cell concentration was computed by comparing the absorbance at 530 nm to 1x McFarland standard solution and multiplying the resulting ratio by 10^7 cell/mL conversion factor. Plate inoculant was prepared by diluting the PBS microbe solution to 5000 cell/mL, in RPMI media. A 100 μL aliquot of cells was transferred to each of the wells on the plate other than column 11 for the no growth control. The operating volume was 200 μL, with 500 CFU per well for a final concentration of 2.5*10^3 cells/mL. Inoculated plates were incubated for 48 h at 37°C and read at 24 and 48 h ([33]).

cdc50Δ mutant strain [2] = settings: cited from earlier work
Description: (§2) Recently, mutation studies discovered an essential role of Cryptococcus lipid flippase in echinocandin resistance ([6]). The lipid flippase is composed of the core P4 type ATPase (P4-ATPase) and a regulatory subunit Cdc50 ([7]). […] This loop region of Cdc50 has been reported in other organisms to bind to the P4-ATPase to regulate flippase activity ([8]).

[3] = test system: C. neoformans wild-type strain H99; settings: cited from earlier work
Description: as §2

[4] = test system: C. neoformans wild-type strain H99; test: microbe, parasite or virus in culture; assay type: cell-based, Cryptococcus neoformans; settings: for MIC: Cryptococcus neoformans
Description: as §1

[5] = test system: exofacial PS on C. neoformans cells; test: AF350-annexin V flow cytometry assay; assay type: cell-based, Cryptococcus neoformans; settings: 0.128 mg/mL peptide, 5*10^6 cell/mL, 20 min at 25°C, triplicate; control 0.2 ± 0.1%
Description: We sought to determine whether the activities of the peptides were related to the lipid-flipping activity of the P4-ATPase. […] The intensity of the AF350-annexin V signal corresponds to concentration of PS on the exofacial side of the membrane. The propidium iodine signal corresponds to cell viability. […] Single cells were first selected and gated based on morphology to ensure homogeneity among the cell population (4A, 4B). We examined cells with low propidium iodine intensity (PI-A < 9 RU) and high AF350-annexin V intensity (Annexin V-A > 9 RU) (4C, 4D). Under these gating parameters there should be, respectively, low nonspecific cell death and high exofacial PS.
Stock microbes were defrosted from the –80°C freezer and were passed twice for 48 h each in YPD media. The YPD media was removed by spinning down and the supernatant was decanted. Pelletized cells were resuspended in 1 mL PBS media and washed for 5 min with incubation at 25°C and 250 RPM. Washed cells were spun down again and suspended in 1 mL of PBS solution. cells were diluted 20-fold into 1 mL fungal working solution in an eppendorf. Cell concentration was quantified via comparison to 1X McFarlain’s standard on a plate reader using the absorbance value at 530 nm. An aliquot of 1*10^6 cells in 100 μL was created (1*10^7cell/mL). A 100 μL aliquot of peptide working solution at 0.256 mg/mL was added to the cell suspension for final operating parameters of 200 μL, 0.128 mg/mL peptide, and 5*10^6cell/mL. The cells were incubated for 20 min at 25°C and 250RPM. Baseline and experimental samples were prepared in triplicate. Cells were stained using an operating concentration of 0.001 mg/mL Propidium Iodine (PI) and a 40-fold dilution of Alexa Fluor 350 labeled annexin V as per manufactures instructions. After staining the cells, samples were spun down and supernatant decanted. Cells were then fixed in 4% formaldehyde for 5 min. Fixed cells were spun down and supernatant decanted and resuspended in 400 μL 1% formaldehyde for flowcytometry. Samples were collected at a slow flow rate on a MACS Quant 10 device (Miltenyi Biotech, Auburn, CA) with 50,000 events collected per injection.

C. neoformans H99 [6] = test: SDS and plate spotting assay; assay type: cell-based, Cryptococcus neoformans; settings: H99 pretreated with 128 μg/mL peptide for 1 h at 30°C; compared to untreated or DMSO controls
Description: Briefly, cultures of C. neoformans were grown in YPD and then spotted on YPD plates containing 0.03% SDS.
To test cell integrity, C. neoformans strains from 3 mL YPD overnight cultures were washed, resuspended, and serially diluted (1:10) in dH2O and spotted (5 μl) on YPD agar plates or YPD agar plates containing 0.03% SDS and incubated for 2 days at 30°C and 37°C. […] Of each strain, yeast cells were inoculated into liquid YPD with 128 μg/mL or 64 μg/mL peptide and co-incubated for 1h at 30°C. And then, 10-fold serial dilutions were prepared, and 5 μl of each was spotted on YPD and YPD agar plates containing 0.03% SDS. The results were photographed after a 48 h of incubation. Their growth was determined by serial dilutions and the fungal colonies were assessed by CFU numbers.

[7] = test system: human red blood cells (RBCs); test: Hemolysis assay; assay type: cell-based; settings: human RBC, 1 h at 37°C, relative to Triton X-100
Description: Operating conditions were 100 μL and 2.5*10^8cell/mL. […] The plate was incubated at 37°C for 1 h. […] The scans were run in triplicate.

C. neoformans H99 [8] = assay type: cell-based, Cryptococcus neoformans; settings: for FIC H99 Caspofungin: Table S1, concentration of caspofungin in combination with the peptide; for FIC H99 Peptide: Table S1, concentration of peptide in combination with caspofungin
Description: (§3) Again, 200 μL was the operating volume, 500CFU per well, 2.5*10^3 cell/mL. Plates were incubated for 48 h at 37°C and read thereafter. The Fractional Inhibitory Concentration Index were calculated in Equation 1: FICIndex=FICA/MICA+FICB/MICB

ΔCDC50 mutant strain = assay type: cell-based, Cryptococcus neoformans; settings: for FIC ΔCDC50 Caspofungin: Table S1, concentration of caspofungin in combination with the peptide; for FIC ΔCDC50 Peptide: Table S1, concentration of peptide in combination with caspofungin
Description: as §3

[9] = Table S1, drug alone, wild type H99

| SMILES | MIC ΔCDC50 (cdc50Δ mutant strain [1]) [µg/mL] | MIC value of caspofungin (cdc50Δ mutant strain [2]) [µg/mL] | MIC value of caspofungin [3] [µg/mL] | MIC ([4]; Table S1, drug alone, wild type H99, read-out: MIC H99) [µg/mL] | MIC ([4]; drug alone, H99 wild type, CLSI broth microdilution, RPMI, 2.5*10^3 cells/mL, 37°C, read at 24 and 48 h, read-out: MIC) [µg/mL] | percentage of cells with low propidium iodine (PI-A < 9 RU) and high AF350-annexin V intensity (Annexin V-A > 9 RU) [5] | growth in terms of CFU on agar medium with 0.03% SDS (C. neoformans H99 [6]) | hemolysis at the concentrations needed for synergy [7] | hemolytic activity (fractional lysis) ([7]; varying concentrations, absorbance 410 nm) | MIC (FIC) of caspofungin in the presence of the AW9-Ma peptide (C. neoformans H99 [8]; C. neoformans wild type, combination with caspofungin) [µg/mL] | FIC H99 Caspofungin (C. neoformans H99 [8]) [µg/mL] | FIC H99 Peptide (C. neoformans H99 [8]) [µg/mL] | FIC ΔCDC50 Caspofungin (ΔCDC50 mutant strain) [µg/mL] | FIC ΔCDC50 Peptide (ΔCDC50 mutant strain) [µg/mL] | MIC H99 [4, 9] [µg/mL] | MIC of caspofungin in the presence of 0.5 μg/mL peptide (C. neoformans H99 [8]; H99, checkerboard, caspofungin alone 16 μg/mL) [µg/mL] |
| --- | --- | --- | --- | --- | --- | --- | --- | --- | --- | --- | --- | --- | --- | --- | --- | --- |
| CC[C@H](C)C[C@H](C)CCCCCCCCC(=O)N[C@H]1C[C@@H](O)[C@@H](NCCN)NC(=O)[C@@H]2[C@@H](O)CCN2C(=O)[C@H]([C@H](O)CCN)NC(=O)[C@H]([C@H](O)[C@@H](O)c2ccc(O)cc2)NC(=O)[C@@H]2C[C@@H](O)CN2C(=O)[C@H]([C@@H](C)O)NC1=O [caspofungin, reference compound] | 4 (≈ 3.66 µM) | 4 | 16 | 16 (≈ 14.6 µM) | 16 (≈ 14.6 µM) |  |  |  |  |  |  |  |  |  |  |  |
| CCCCCCCCCCCCCC(=O)N[C@@H](Cc1c[nH]c2ccccc12)C(=O)NCC(=O)NCC(=O)N[C@H](C(=O)N[C@@H](CCCCN)C(=O)N[C@@H](CCCCN)C(=O)N[C@@H](CC(N)=O)C(=O)N[C@@H](Cc1ccc(O)cc1)C(=O)N[C@@H](C)C(=O)O)[C@@H](C)CC [AW9-Ma] (Myristoyl-WGGIKKNYA-OH) |  |  |  |  |  | 67.6% ± 2.3 | significantly reduced growth | low amounts of hemolysis | concentrate-dependent minimal amount of hemolysis | 4 | 4 | 16 | 0.125 | 0.125 | 64 (≈ 51.3 µM) |  |
| CCCCCCCCCCCCCC(=O)N[C@@H](CO)C(=O)N[C@@H](CCC(=O)O)C(=O)N[C@@H](CO)C(=O)NCC(=O)N[C@H](C(=O)N[C@@H](C)C(=O)N[C@@H](Cc1c[nH]c2ccccc12)C(=O)NCC(=O)NCC(=O)N[C@H](C(=O)N[C@@H](CCCCN)C(=O)N[C@@H](CCCCN)C(=O)N[C@@H](CC(N)=O)C(=O)N[C@@H](Cc1ccc(O)cc1)C(=O)N[C@@H](C)C(=O)O)[C@@H](C)CC)[C@@H](C)CC [AS15-Ma] (Myristoyl-SESGIAWGGIKKNYA-OH) | 8 (≈ 4.47 µM) |  |  |  |  | 12.1 ± 2.0% |  |  |  |  | 8 | 0.5 | 0.25 | 0.25 | > 128 | 8 |
